The term IC50 denotes the concentration needed to halve the response being measured.

The values below come from patent US5416099A, “Fibrinogen receptor antagonists” (Merck & Co., Inc., priority 1993, dated 1995).

The experiment deals with Human platelets. Nature of the experiment: ADP-stimulated platelet aggregation assay (gel-filtered human platelets). It is filed as cell-based. The note with it: fibrinogen 100 μg/ml, Ca^2+ 1 mM, 10 uM ADP, 37° C., read-out: platelet aggregation inhibition potency, IC50. How it is done:
An ADP-stimulated platelet aggregation assay was used to determine inhibition associated with compounds of the invention.
Human platelets were isolated from fresh blood, collected into acid citrate/dextrose by differential centrifugation followed by gel filtration on Sepharose 2B in divalent ion-free Tyrode's buffer (pH 7.4) containing 2% bovine serum albumin. Platelet aggregation was measured at 37° C. in a a Chronolog aggregometer. The reaction mixture contained gel-filtered human platelets (2×10^8 per ml), fibrinogen (100 μg/ml), Ca^2+ (1 mM), and the compound to be tested. Aggregation was initiated by adding 10 uM ADP 1 minute after the other components had been added. The reaction was allowed to proceed for at least 2 minutes. The extent of inhibition of aggregation was expressed as the percentage of the rate of aggregation observed in the absence of inhibitor. The IC50 is the dose of a particular compound inhibiting aggregation by 50% relative to a control lacking the compound.

With `O=C(O)CCNC(=O)c1ccc2c(c1)C(=O)N(CCCC1CCNCC1)C2`, the IC50 was found to be 0.92 µM.

As to `O=C(O)CNC(=O)c1ccc2c(c1)C(=O)N(CCCC1CCNCC1)C2`, the IC50 was 14 µM.
